Measured values as given in paper PMC8004729, “Multifunctional Tyrosinase Inhibitor Peptides with Copper Chelating, UV-Absorption and Antioxidant Activities: Kinetic and Docking Studies” (Foods, 2021).
“Also recorded” adds a separate entry of the source. Marks after values point to notes of the source that are not given here. Residues, ends and D or L forms follow the SMILES beside them.

Experiments:
[1] = Sun protection factor (SPF) by UV spectrophotometry, Mansur equation; assay type: physicochemical; settings: peptide 10 mg/mL, UVB 290–320 nm absorbance, CF 10, mean ± standard deviation (n = 3), SD
Protocol: The ability of peptides to absorb light in the UVB region (290–320 nm) was measured according to the methods described by Dutra, Kedor-Hackmann and Santoro [18]. The UV–Vis spectrophotometer was set to scan the peptide samples from 220 to 400 nm with a 5 nm increment. The SPF values of the peptide samples (10 mg/mL) were calculated using the Mansur equation:(4) SPF=CF×∑290320EEλ×Iλ×Absλ where CF denotes correction factor of 10 (for the short pathlength used); EE denotes erythemal effect spectrum; I denotes solar intensity spectrum and Abs denotes the absorbance of sample.

[2] = Copper chelating activity (pyrocatechol violet); settings: peptide 10 mg/mL, 50 mM sodium acetate buffer pH 6.0, absorbance 632 nm, mean ± standard deviation (n = 3), SD
Protocol: The copper chelating activity was determined according to Kubglomsong et al.. Briefly, 4 mM of chromogenic reagent, i.e., pyrocatechol violet was prepared in 50 mM sodium acetate buffer (pH 6.0). Then, 10 µL of peptide sample (10 mg/mL), 280 µL sodium acetate buffer, 10 µL CuSO4∙5H2O and lastly 6 µL pyrocatechol violet were added to a 96-well plate. The sample solution was mixed well and the absorbance was measured at 632 nm using a spectrophotometer (Spectramax M5, Molecular Devices, San Jose, CA, USA). Ethylenediaminetetraacetic acid (EDTA) was used as the positive control. The copper chelating activity is calculated as follows:(3) Copper chelating activity %=Acontrol−Asample/Acontrol×100 where Acontrol denotes the absorbance of the system containing sodium acetate buffer, pyrocatechol violet and CuSO4∙5H2O whereas Asample denotes the absorbance of the system containing peptide, sodium acetate buffer, pyrocatechol violet and CuSO4∙5H2O.

Mushroom tyrosinase [3] = target: T1, Mushroom tyrosinase (Agaricus bisporus, UniProt C7FF04); test: Diphenolase inhibitory activity of tyrosinase (ʟ-DOPA as substrate) and Lineweaver–Burk mode of inhibition; assay type: biochemical; settings: diphenolase reaction; for Mode of Inhibition: Lineweaver–Burk plot, [S] 0.125 to 0.5 mM, different peptide concentrations
T1 construct: purchased Sigma-Aldrich
Protocol: (§1) The monophenolase and diphenolase inhibitory activities of tyrosinase were determined by using ʟ-tyrosine and ʟ-DOPA as substrates, respectively, as previously described. Various concentrations of peptides were tested to determine the IC50 values, i.e., the concentration of peptides required to inhibit half of the tyrosinase activities. The activities of monophenolase and diphenolase reactions were determined through the measurement of the rate of formation of dopachrome in the presence of substrate concentrations, [S] ranging from 0.125 to 0.5 mM. The initial velocity, V of the reaction was determined using the Beer–Lambert law:(1) ΔA=ε l Δc (2) V=ΔC/t=ΔA/ε l t where ΔC/t denotes the rate of change of the solution concentration; ΔA/t denotes the rate of change of absorbance i.e., slope of the reaction; ε denotes the molar extinction coefficient of dopachrome (3700 M^−1 cm^−1) and l denotes the pathlength.
Target sequence in this assay (C7FF04 1-392 limits assumed): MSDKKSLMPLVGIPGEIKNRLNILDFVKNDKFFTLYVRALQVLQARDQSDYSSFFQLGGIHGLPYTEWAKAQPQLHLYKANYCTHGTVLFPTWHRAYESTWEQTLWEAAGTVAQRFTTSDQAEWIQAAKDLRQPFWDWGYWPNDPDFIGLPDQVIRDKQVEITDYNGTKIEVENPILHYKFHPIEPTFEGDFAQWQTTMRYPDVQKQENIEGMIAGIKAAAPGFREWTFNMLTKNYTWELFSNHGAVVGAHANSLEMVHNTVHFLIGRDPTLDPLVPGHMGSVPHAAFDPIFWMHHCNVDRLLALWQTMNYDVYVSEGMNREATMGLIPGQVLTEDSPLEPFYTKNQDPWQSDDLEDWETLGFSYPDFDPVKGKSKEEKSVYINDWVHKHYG

[4] = ABTS free radical scavenging assay; settings: peptide 10 mg/mL; dark, room temperature, 6 min; absorbance 734 nm; mean ± standard deviation (n = 3); SD
Protocol: The free radical scavenging potential of peptides was measured according to Cai, Luo, Sun and Corke. Briefly, ABTS reagent containing 7 mM ABTS and 2.45 mM ammonium persulfate were incubated in the dark at room temperature for 12–16 h. The reagent was diluted using 80% ethanol to an absorbance of 0.700 ± 0.005 at 734 nm. Then, 195 µL of the diluted ABTS reagent was added to 5 µL of peptide sample (10 mg/mL) and incubated in the dark at room temperature for 6 min. The absorbance of the sample at 734 nm was monitored immediately using a spectrophotometer. Gallic acid was used as the positive control. The ABTS free radical scavenging activity is calculated as follows:(5) ABTS free radical scavenging activity %=Acontrol−Asample/Acontrol×100 where Acontrol denotes the absorbance of the system containing ABTS and water whereas Asample denotes the absorbance of the system containing ABTS and peptide sample.

[5] = Ferric reducing antioxidant power (FRAP) assay; settings: peptide 10 mg/mL; 37 °C for 1 h; absorbance 593 nm; mean ± standard deviation (n = 3); SD
Protocol: The reducing potential of peptides was measured according to Benzie and Strain [20]. ferric reducing antioxidant power (FRAP) reagent containing 300 mM acetate buffer (pH 3.6), 10 mM TPTZ prepared in 40 mM HCl and 20 mM FeCl3⸱6H2O in the ratio of 10:1:1 was incubated at 37 °C for 30 min. Then, 200 µL of FRAP reagent was added to 2.7 µL peptide sample (10 mg/mL) in a 96-well plate and mixed well before incubating at 37 °C for 1 h. The absorbance of the sample was then measured spectrophotometrically at 593 nm. Freshly prepared FRAP reagent was used for each run. A standard curve was prepared using FeSO4⸱7H2O at 0–3 mM. The peptide FRAP was expressed in mM FeSO4. Gallic acid was used as the positive control.

Mushroom tyrosinase [6] = target: T1, Mushroom tyrosinase; test: Monophenolase inhibitory activity of tyrosinase (ʟ-tyrosine as substrate) and Lineweaver–Burk mode of inhibition; assay type: biochemical; settings: monophenolase reaction; for Tyrosinase Activity Inhibition (%): substrate ʟ-tyrosine, peptide concentration 10 mg/mL, mean ± standard deviation (n = 3), SD; for Mode of Inhibition: Lineweaver–Burk plot, [S] 0.125 to 0.5 mM, different peptide concentrations
Protocol: as §1
Target sequence in this assay (C7FF04 1-392): as the sequence (C7FF04 1-392 limits assumed) above

tyrosinase = target: tyrosinase; parameters: method as in 2 sources, ref 25 = [25]; PMID 10441774; doi:10.1002/(SICI)1099-1573(199908/09)13:5<371::AID-PTR453>3.0.CO;2-L; 25. Lim J.Y. Ishiguro K. Kubo I. Tyrosinase inhibitory p-Coumaric acid from Ginseng leaves Phytother. Res. 1999 13 371 375 10.1002/(SICI)1099-1573(199908/09)13:5<371::AID-PTR453>3.0.CO;2-L 10441774 ||| ref 26 = [26]; PMID 3141207; doi:10.1007/BF01941189; 26. Maddaluno J.F. Faull K.F. Inhibition of mushroom tyrosinase by 3-amino-L-tyrosines: Molecular probing of the active site of the enzyme Experientia 1988 44 885 887 10.1007/BF01941189 3141207; settings: read-out: IC50 (tyrosinase mixed-type inhibitor); cited from earlier work
[7] = DPPH free radical scavenging assay; settings: peptide 10 mg/mL; 0.1 mM DPPH in ethanol, 30 °C for 30 min; absorbance 517 nm; mean ± standard deviation (n = 3); SD
Protocol: The free radical scavenging potential of peptides was measured according to Blois. Briefly, 0.1 mM DPPH stock solution was prepared in ethanol. In a dark setting, 500 µL of DPPH was added to 16.65 µL peptide sample (10 mg/mL) and incubated at 30 °C for 30 min. The absorbance of the mixture was then monitored at 517 nm using a spectrophotometer. Gallic acid was used as the positive control. The DPPH free radical scavenging activity is calculated as follows:(6) DPPH free radical scavenging activity %=Acontrol−Asample/Acontrol×100 where Acontrol denotes the absorbance of the system containing DPPH and ethanol whereas Asample denotes the absorbance of the system containing DPPH and peptide sample.

[8] = substrate ʟ-DOPA, peptide concentration 10 mg/mL, mean ± standard deviation (n = 3), SD

Compound	Tyrosinase Activity Inhibition (%) (Mushroom tyrosinase [6])	Mode of Inhibition (Mushroom tyrosinase [6])	SPF [1]	Copper Chelating Activity (%) [2]	Antioxidant Activity ABTS (%) free radical scavenging [4]	Antioxidant Activity FRAP (mM FeSO4) [5]	other results
FMMFESQNKDLLFK [DIP3]			1.98 ± 0.05 ^b	26.23 ± 1.03 ^c %	0.99%		Tyrosinase Activity Inhibition (%) (Mushroom tyrosinase [3]; [8]): 28.95 ± 1.47 ^c %; Mode of Inhibition (Mushroom tyrosinase [3]): uncompetitive inhibitor
O=C(O)CN(CCN(CC(=O)O)CC(=O)O)CC(=O)O [EDTA, Ethylenediaminetetraacetic acid, reference compound]				96.06 ± 0.03^e %			
O=C(O)/C=C/c1ccc(O)cc1 [p-coumaric acid]							IC50 (tyrosinase): < 360 µM
O=C(O)c1cc(O)c(O)c(O)c1 [Gallic acid, reference compound]					83.14 ± 3.02 ^d %	16.6 ± 0.36 ^c mM FeSO4	Antioxidant Activity DPPH (%) free radical scavenging [7]: 81.67 ± 0.03 ^b %
CC(C)C[C@H](NC(=O)[C@H](CO)NC(=O)[C@H](Cc1ccc(O)cc1)NC(=O)CN)C(=O)NCC(=O)N[C@@H](CC(N)=O)C(=O)N[C@@H](Cc1c[nH]c2ccccc12)C(=O)N[C@H](C(=O)N[C@@H](CS)C(=O)N[C@@H](C)C(=O)N[C@@H](C)C(=O)N[C@@H](CCCCN)C(=O)O)C(C)C [DIP1] (H-GYSLGNWVCAAK-OH)							IC50 (Mushroom tyrosinase [3]; substrate ʟ-DOPA, mean ± standard deviation, SD): 3.04 ± 0.39 mM; inhibition at 10000 µg/mL (Mushroom tyrosinase [3]; [8]): 80 ± 2.79%
HIATNAVLFFGR [DIP2]			6.45 ± 0.40 ^d	19.13 ± 2.22 ^b %		0.018 ± 0.001 ^a mM FeSO4	Tyrosinase Activity Inhibition (%) (Mushroom tyrosinase [3]; [8]): 17.70 ± 2.66 ^a %; Mode of Inhibition (Mushroom tyrosinase [3]): weaker competitive inhibitor; also recorded: competitive inhibitors
ILELPFASGDLLML [MIP2]	17.26 ± 2.10 ^a %	weaker competitive inhibitor; also recorded: competitive inhibitors	3.12 ± 0.13 ^c	11.41 ± 0.13 ^a %	1.44%		

More lines, main results first:

Tyrosinase Activity Inhibition (%) (Mushroom tyrosinase [6])	Mode of Inhibition (Mushroom tyrosinase [6])	Compound	SPF [1]	Copper Chelating Activity (%) [2]	Antioxidant Activity ABTS (%) free radical scavenging [4]	Antioxidant Activity FRAP (mM FeSO4) [5]	other results
35.86 ± 2.26 ^d %	competitive inhibitors	ADHPF [MIP1]	1.80 ± 0.02 ^b	94.33 ± 0.04 ^e %	2.90 ± 0.28 ^b %	0.035 ± 0.004 ^a mM FeSO4	
22.78 ± 1.12 ^b %	mixed-type inhibitor	FDKLPGFGD [MIP3]	1.36 ± 0.02 ^a	94.43 ± 0.46 ^e %	2.11%	0.034 ± 0.002 ^a mM FeSO4	
